According to patent US20230391739A1, “ARYL DERIVATIVES FOR TREATING TRPM3 MEDIATED DISORDERS” (Katholieke Universiteit Leuven, priority 2020, published 2023):

Biological target: T1, mouse TRPM3α2 (mTRPM3) ion channel (Mus musculus, UniProt J9SQF3)
T1 construct: expressed in transfected cells; host or cells: flip-in HEK293
Assay: TRPM3 ion channel driven Ca2+ uptake, Fluo-4 AM assay, PS-stimulated (mTRPM3)
Type: cell-based
Conditions: TRPM3 overexpressing flip-in HEK293 cells stimulated with Pregnenolone sulfate (PS) 50 μM, activity ranges A, B, C
Procedure: Monitoring the TRPM3 Ion Channel Driven Ca^2+ Uptake.
In order to monitor the inhibition of the mouse TRPM3α2 (mTRPM3) ion channel by the compounds of the invention, a cellular system making use of an mTRPM3alpha2 or hTRPM3 overexpressing cell line (flip-in HEK293) was used. The TRPM3 channel was stimulated/opened with Pregnenolone sulfate (PS) (50 μM) which results in Ca^2+ influx.
For mTRPM3, the intracellular Ca^2+ was measured with a Calcium responsive dye, Fluor-4 AM ester (Invitrogen). Cells were cultured until a confluence of 80-90%, washed with Versene (Invitrogen) and detached from the surface by a short incubation with 0.05% Trypsin (Invitrogen). The trypsination process was stopped by the addition of complete cell culture medium (DMEM, glutamax, 10% FCS, NEAA, Pen-Strep). Cells were collected and resuspended in Krebs buffer without Calcium at RT.
Prior the cell seeding (±2000 cells/well into a black, 384 well plate (Greiner)) the diluted compound was added in the assay plate, together with the PS dissolved in Krebs buffer containing Calcium. […] Directly after cell addition the plates were read on an Envision fluorescence reader (Perkin Elmer) by an Excitation of 485 nm and emission at 535 nm.
Channel inhibition was calculated compared to a non-PS stimulated control versus a condition stimulated with PS (50 μM) with vehicle. The ability of the compounds of the invention to inhibit this activity was determined as: Percentage inhibition=[1−((RFU determined for sample with test compound present−RFU determined for sample with positive control inhibitor) divided by (RFU determined in the presence of vehicle−RFU determined for sample with positive control inhibitor))]*100.
The activities of the Example compounds tested are depicted in the table below.

T1 sequence (J9SQF3 1-1709 isoform J9SQF3-12): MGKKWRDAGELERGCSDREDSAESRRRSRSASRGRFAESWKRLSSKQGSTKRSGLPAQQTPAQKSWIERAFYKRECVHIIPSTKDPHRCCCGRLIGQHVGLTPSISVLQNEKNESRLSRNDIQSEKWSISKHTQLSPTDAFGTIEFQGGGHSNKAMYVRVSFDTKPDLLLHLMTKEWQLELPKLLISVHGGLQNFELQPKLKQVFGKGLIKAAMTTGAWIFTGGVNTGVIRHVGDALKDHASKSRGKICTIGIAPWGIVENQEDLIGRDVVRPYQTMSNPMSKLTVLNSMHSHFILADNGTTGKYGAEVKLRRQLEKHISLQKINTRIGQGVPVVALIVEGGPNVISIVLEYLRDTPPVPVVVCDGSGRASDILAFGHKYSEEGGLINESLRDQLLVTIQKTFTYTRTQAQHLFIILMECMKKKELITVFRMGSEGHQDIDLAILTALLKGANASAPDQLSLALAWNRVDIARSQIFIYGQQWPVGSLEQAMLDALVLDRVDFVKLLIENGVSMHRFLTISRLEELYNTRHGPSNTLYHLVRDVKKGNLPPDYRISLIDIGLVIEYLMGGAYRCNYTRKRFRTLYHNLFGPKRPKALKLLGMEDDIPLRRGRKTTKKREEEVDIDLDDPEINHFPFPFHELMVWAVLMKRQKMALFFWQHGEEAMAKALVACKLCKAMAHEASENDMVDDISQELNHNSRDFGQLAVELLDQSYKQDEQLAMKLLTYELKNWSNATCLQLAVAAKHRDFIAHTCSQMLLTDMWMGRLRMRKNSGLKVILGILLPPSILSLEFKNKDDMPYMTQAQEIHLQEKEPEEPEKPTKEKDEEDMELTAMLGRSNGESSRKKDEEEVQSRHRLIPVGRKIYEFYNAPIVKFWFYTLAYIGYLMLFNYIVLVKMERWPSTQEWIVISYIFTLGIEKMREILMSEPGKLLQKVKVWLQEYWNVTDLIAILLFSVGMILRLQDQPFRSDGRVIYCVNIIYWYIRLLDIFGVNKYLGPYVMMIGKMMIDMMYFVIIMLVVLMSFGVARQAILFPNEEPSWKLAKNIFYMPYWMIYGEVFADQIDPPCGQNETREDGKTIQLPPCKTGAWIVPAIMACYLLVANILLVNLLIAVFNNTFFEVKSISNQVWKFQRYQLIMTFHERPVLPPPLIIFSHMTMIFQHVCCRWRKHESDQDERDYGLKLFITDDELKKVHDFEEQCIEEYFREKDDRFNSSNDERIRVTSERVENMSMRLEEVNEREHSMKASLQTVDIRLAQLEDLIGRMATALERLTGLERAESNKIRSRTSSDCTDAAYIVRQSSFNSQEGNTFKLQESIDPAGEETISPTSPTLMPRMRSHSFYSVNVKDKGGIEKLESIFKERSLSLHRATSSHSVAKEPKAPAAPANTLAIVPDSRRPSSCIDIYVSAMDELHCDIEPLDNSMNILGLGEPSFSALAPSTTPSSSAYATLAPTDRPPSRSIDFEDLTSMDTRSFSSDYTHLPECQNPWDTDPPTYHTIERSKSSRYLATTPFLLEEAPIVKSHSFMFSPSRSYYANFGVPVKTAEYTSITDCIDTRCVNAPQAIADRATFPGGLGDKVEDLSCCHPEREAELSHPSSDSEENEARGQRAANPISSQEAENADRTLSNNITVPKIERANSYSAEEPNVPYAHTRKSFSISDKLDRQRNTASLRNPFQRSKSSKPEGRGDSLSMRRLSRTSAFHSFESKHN

Row | IC50 [nM] | SMILES
1 | 1000 to 20000 | Cc1oc2ccc(OCc3ccccc3)cc2c1C(=O)NCC1CCNC1 (stereo not shown) [Cpd 077, 5-(benzyloxy)-2-methyl-N-(pyrrolidin-3-ylmethyl)benzofuran-3-carboxamide]
2 | > 20000 | Cc1oc2c(Cl)cc(OCc3ccccc3)cc2c1C(=O)NC1CNCC1(F)F (single isomer, unassigned) [Cpd 304-En 2, 5-(benzyloxy)-7-chloro-N-(4,4-difluoropyrrolidin-3-yl)-2-methylbenzofuran-3-carboxamide]
3 | < 1000 | Cc1oc2ccc(OCc3ccccc3F)cc2c1C(=O)NC(C)(C)C(N)=O [Cpd 315, N-(1-amino-2-methyl-1-oxopropan-2-yl)-5-((2-fluorobenzyl)oxy)-2-methylbenzofuran-3-carboxamide]
4 | < 1000 | Cc1oc2ccc(OCc3ccccc3F)cc2c1C(=O)NC(C)(CO)CO [Cpd 312, N-(1,3-dihydroxy-2-methylpropan-2-yl)-5-((2-fluorobenzyl)oxy)-2-methylbenzofuran-3-carboxamide]
5 | 1000 to 20000 | Cc1oc2ccc(OCc3ccccc3)cc2c1C(=O)N[C@H]1CCCN(C2COC2)C1 [Cpd 206, (S)-5-(benzyloxy)-2-methyl-N-(1-(oxetan-3-yl)piperidin-3-yl)benzofuran-3-carboxamide]
6 | < 1000 | Cc1oc2ccc(OCc3ccccc3)cc2c1C(=O)NC1COC1 [Cpd 043, 5-(benzyloxy)-2-methyl-N-(oxetan-3-yl)benzofuran-3-carboxamide]
7 | 1000 to 20000 | Cc1oc2c(Cl)cc(OCc3ccccc3)cc2c1C(=O)NC1CNCC1(F)F (single isomer, unassigned) [Cpd 304-En 1, 5-(benzyloxy)-7-chloro-N-(4,4-difluoropyrrolidin-3-yl)-2-methylbenzofuran-3-carboxamide]
8 | < 1000 | Cc1oc2ccc(OC(CO)c3ccccc3F)cc2c1C(=O)NC1(C(N)=O)CCC1 (single isomer, unassigned) [Cpd 345-En 1, N-(1-carbamoylcyclobutyl)-5-(1-(2-fluorophenyl)-2-hydroxyethoxy)-2-methylbenzofuran-3-carboxamide]
9 | < 1000 | Cc1oc2ccc(OCc3ccccc3C(F)(F)F)cc2c1C(=O)N[C@H]1CCNC1 [Cpd 203, (S)-2-methyl-N-(pyrrolidin-3-yl)-5-((2-(trifluoromethyl)benzyl)oxy)benzofuran-3-carboxamide]
10 | 1000 to 20000 | Cc1oc2ccc(OCc3ccccc3)cc2c1C(=O)NC1CC(=O)N(C)C1 (stereo not shown) [Cpd 110, 5-(benzyloxy)-2-methyl-N-(1-methyl-5-oxopyrrolidin-3-yl)benzofuran-3-carboxamide]
11 | < 1000 | Cc1oc2ccc(OCc3ccccc3F)cc2c1C(=O)NC1COCC1(F)F (single isomer, unassigned) [Cpd 331-En 2]
12 | < 1000 | CNC(=O)c1c(C)oc2ccc(OCc3c(F)cccc3Cl)cc12 [Cpd 045, 5-((2-chloro-6-fluorobenzyl)oxy)-N,2-dimethylbenzofuran-3-carboxamide]
13 | < 1000 | Cc1oc2ccc(OCc3ccccc3)cc2c1C(=O)NC1CNCC1F (racemic) [Cpd 094, rac-5-(benzyloxy)-N-(cis-4-fluoropyrrolidin-3-yl)-2-methylbenzofuran-3-carboxamide]
14 | < 1000 | Cc1oc2ccc(OCc3ccccc3)cc2c1C(=O)NC1CCN(C)C1 (stereo not shown) [Cpd 076, 5-(benzyloxy)-2-methyl-N-(1-methylpyrrolidin-3-yl)benzofuran-3-carboxamide]
15 | 1000 to 20000 | Cc1oc2ccc(OCc3ccccc3)cc2c1C(=O)NC1CCN(Cc2ccccc2)CC1 [Cpd 241, 5-(benzyloxy)-N-(1-benzylpiperidin-4-yl)-2-methylbenzofuran-3-carboxamide]
16 | 1000 to 20000 | Cc1oc2ccc(OCc3ccccc3)cc2c1C(=O)NC1CCN(C(=O)OC(C)(C)C)CC1 [Cpd 249, tert-butyl 4-(5-(benzyloxy)-2-methylbenzofuran-3-carboxamido)piperidine-1-carboxylate]

Row | IC50 [nM] | SMILES
17 | < 1000 | Cc1oc2ccc(OCc3ccccc3)cc2c1C(=O)N[C@H]1CCN(C)C1 [Cpd 079, (S)-5-(benzyloxy)-2-methyl-N-(1-methylpyrrolidin-3-yl)benzofuran-3-carboxamide]
18 | > 20000 | Cc1oc2ccc(OCc3ccccc3)cc2c1C(=O)N1CCN(C)CC1 [Cpd 072, (5-(benzyloxy)-2-methylbenzofuran-3-yl)(4-methylpiperazin-1-yl)methanone]
19 | < 1000 | Cc1oc2ccc(OCc3ccccc3)cc2c1C(=O)NC1CCC(O)CC1 (stereo not shown) [Cpd 123, 5-(benzyloxy)-N-(4-hydroxycyclohexyl)-2-methylbenzofuran-3-carboxamide]
20 | < 1000 | Cc1oc2ccc(OCc3ccccc3)cc2c1C(=O)NC1(CO)COC1 [Cpd 092, 5-(benzyloxy)-N-(3-(hydroxymethyl)oxetan-3-yl)-2-methylbenzofuran-3-carboxamide]
21 | 1000 to 20000 | Cc1oc2ccc(OCc3c(F)cccc3Cl)cc2c1C(=O)O [Cpd 021, 5-((2-chloro-6-fluorobenzyl)oxy)-2-methylbenzofuran-3-carboxylic acid]
22 | 1000 to 20000 | Cc1oc2ccc(OCc3ccccc3)cc2c1C(=O)NC1(CNC(=O)OC(C)(C)C)CCC1 [Cpd 246, tert-butyl ((1-(5-(benzyloxy)-2-methylbenzofuran-3-carboxamido)cyclobutyl)methyl)carbamate]
23 | 1000 to 20000 | CCCNC(=O)c1c(C)oc2ccc(OCc3ccccc3)cc12 [Cpd 040, 5-(benzyloxy)-2-methyl-N-propylbenzofuran-3-carboxamide]
24 | 1000 to 20000 | Cc1oc2ccc(OCc3cccc(F)c3F)cc2c1C(=O)N[C@H]1CCN(C(=O)OC(C)(C)C)C1 [Cpd 256, tert-butyl (S)-3-(5-((2,3-difluorobenzyl)oxy)-2-methylbenzofuran-3-carboxamido)pyrrolidine-1-carboxylate]
25 | < 1000 | Cc1oc2ccc(OCc3ccccc3)cc2c1C(=O)NC1CNCCC1F (single isomer, unassigned) [Cpd 130-Dia 2]
26 | < 1000 | Cc1oc2ccc(OCc3ccccc3F)cc2c1C(=O)NC1CCN(CCO)C1=O (single isomer, unassigned) [Cpd 311-En 2, 5-((2-Fluorobenzyl)oxy)-N-(1-(2-hydroxyethyl)-2-oxopyrrolidin-3-yl)-2-methylbenzofuran-3-carboxamide]
27 | 1000 to 20000 | Cc1oc2ccc(OCc3ccccc3)cc2c1C(=O)NCc1cccnc1 [Cpd 100, 5-(benzyloxy)-2-methyl-N-(pyridin-3-ylmethyl)benzofuran-3-carboxamide]
28 | 1000 to 20000 | Cc1oc2ccc(OCc3cccc(Cl)c3)cc2c1C(=O)O [Cpd 017, 5-((3-chlorobenzyl)oxy)-2-methylbenzofuran-3-carboxylic acid]
29 | < 1000 | Cc1oc2ccc(OCc3cccc(F)c3F)cc2c1C(=O)NC1CCNCC1(F)F (stereo not shown) [Cpd 227, 5-((2,3-difluorobenzyl)oxy)-N-(3,3-difluoropiperidin-4-yl)-2-methylbenzofuran-3-carboxamide]
30 | < 1000 | COc1cccc(COc2ccc3oc(C)c(C(=O)O)c3c2)c1 [Cpd 012, 5-((3-methoxybenzyl)oxy)-2-methylbenzofuran-3-carboxylic acid]
31 | 1000 to 20000 | Cc1oc2ccc(OCc3ccccc3)cc2c1C(=O)NC[C@H]1CCCO1 [Cpd 089, (R)-5-(benzyloxy)-2-methyl-N-((tetrahydrofuran-2-yl)methyl)benzofuran-3-carboxamide]
